Format in all cases: cell-based
For data set [1], the system named is 21 established DLBCL cell lines. The experiment in a line: MTT viability assay of DLBCL cell lines with and without MTOR mutations. The note with it: on average; FIG. 1G. As for the experimental part: Lymphoma cell lines were cultured with RPMI1640 media supplemented with 10% v/v Fetal Bovine Serum (FBS) and 1% v/v Penicillin/Streptomycin supplied at 10,000 U penicillin and 10 mg streptomycin/ml (BJAB, Farage, Karpas422, Pfieffer, RL, SCI 1, SKI, Toledo, U2932, WSU_NHL, HT), or RPMI1640 supplemented with 15% v/v FBS and 1% v/v P/S (RCK8, SUDH4, SUDHL7), Iscove's modified Dulbecco's medium (IMDM) supplemented with 20% v/v human plasma and 1% P/S ([…]), or alpha-MEM media supplemented with 10% FBS and 1% P/S (TMD8). Cells were grown in a 5% CO2 environment at 37° C.
The effect the PI3K inhibitor drug BKM120 (Novartis) on lymphoma cell lines was assayed on 96-well format using MTT viability assays. 40,000 cells were grown in drug at 10 concentrations: 25 μM, and nine serial 1:2 dilutions down to 0.05 μM. For each condition tested, there were five technical replicates. Two controls were included: media only and drug-free cells. If the IC50 was not reached within this drug concentration range, the experiment was repeated with an additional drug concentration of […]. […] 100 μl of MTT detergent solution was added, and color was developed in the dark at room temperature overnight, after which 570 nm absorbance was measured. After normalization to control wells, the IC50 values were calculated. […]

Data set [2] has as its system Ly8 cells and normal human B cells (tonsil lymphocytes). Briefly: Toxicity in Ly8 cells compared to normal B cells (alamar blue). The note with it: alone and in combination; 36 hours. The method, then:
BEZ235 was tested in combination with the PAK1 inhibitor IPA-3 using Calcusyn software by applying the Chou-Talalay method. BJAB, HBL1, HBL2, HT, Ly8, and Riva cells were tested, as were normal tonsil lymphocytes. Ly8 and tonsillar lymphocytes were cultured in 96-well plates (approximately 500,000 cells/ml) for 36 hours in Iscove's modified Dulbecco's medium (IMDM) with 20% human AB serum. Viability was assessed with alamar blue dye and normalized to the lowest concentration of BEZ235 in each group.
Finally, BEZ235 and IPA-3 were administered separately and concurrently to normal human B cells to ascertain a therapeutic window between normal and malignant cells.

The test system of data set [3] is Ly8 cell lines with stable knockdown of PAK1 expression. The experiment in a line: MTT assay in Ly8 cells with shRNA knockdown of PAK1. Particulars: on average, P<0.01.
Method: The 3-(4,5-dimethylthiazol-2-yl)-2,5-diphenyltetrazolium bromide (MTT) cell viability assay was used to determine cell viability in response to drug treatment. Five replicates per concentration tested were carried out in serial dilutions with a total of ten concentrations with a 50% reduction in drug concentration per dilution for each plate. A total of 15 μl of MTT reagent was added to each drug-treated well and incubated for three hours in 37° C. Detergent was added to each drug-treated well and incubated overnight at room temperature without exposure to light. Absorbance was measured at 570 nm using a plate reader from Tecan Group.
Lentiviral pGIPZ constructs containing either a scrambled sequence (non-silencing; cat. no. RHS4346; Open Biosystems) as control, or a hairpin sequence targeting the PAK1 gene (cat. no. RHS4430; Open Biosystems) were mixed with Lentiviral packaging mix (cat. no. TLP4691; Open Biosystems) and transfected into TLA-HEK-293T cells using Arrest-in as a transfection reagent. Virus was harvested 72 hours post-transfection and frozen at −80° C. until use. DLBCL cell lines were infected with virus in the presence of 8 μg/μl of polybrene, using 1×10^5 cells per well in a 6-well plate. The plates containing cells and virus were spun at 700 g for 90 minutes at room temperature. […] Successful knockdown of PAK1 was confirmed by Western blot and quantitative PCR. […]

As for `Nc1cc(C(F)(F)F)c(-c2cc(N3CCOCC3)nc(N3CCOCC3)n2)cn1` [BKM120], the “sensitivity of cell lines with MTOR mutations (HT, Ly1, SUDHL7) versus the other 18 cell lines” value in data set [1] is “fivefold higher sensitivity”. As for `Cn1c(=O)n(-c2ccc(C(C)(C)C#N)cc2)c2c3cc(-c4cnc5ccccc5c4)ccc3ncc21` [BEZ235], the “toxicity in Ly8 cells as compared to normal B cells” value in data set [2] was “selective toxicity”. Moreover, the “sensitivity of the three shRNA-modified cell lines versus unmodified Ly8 cells” value in data set [3] worked out at 3.5 fold.

The values are drawn from patent US9861625B2, “Methods and compositions for treating cancer through inhibition of PI3K” (Duke University, priority 2014, dated 2018).
